Assay results as given in patent US20260193258A1, “AGENT FOR PROMOTING PHOSPHORYLATION OF eIF2a” (ER Stress Research Institute, Inc., priority 2019, published 2026).

Columns and labels:
human topoisomerase I = molecular target: T1, human topoisomerase I (Homo sapiens, UniProt P11387); test: Human topoisomerase I DNA relaxation assay (ProFoldin kit); type: biochemical; conditions: 5 μL of evaluation sample solution (100 μM), fluorescence 485/535 nm, FIG. 4
T1 construct: purchased ProFoldin HRA100KE
T1 sequence (P11387 1-765): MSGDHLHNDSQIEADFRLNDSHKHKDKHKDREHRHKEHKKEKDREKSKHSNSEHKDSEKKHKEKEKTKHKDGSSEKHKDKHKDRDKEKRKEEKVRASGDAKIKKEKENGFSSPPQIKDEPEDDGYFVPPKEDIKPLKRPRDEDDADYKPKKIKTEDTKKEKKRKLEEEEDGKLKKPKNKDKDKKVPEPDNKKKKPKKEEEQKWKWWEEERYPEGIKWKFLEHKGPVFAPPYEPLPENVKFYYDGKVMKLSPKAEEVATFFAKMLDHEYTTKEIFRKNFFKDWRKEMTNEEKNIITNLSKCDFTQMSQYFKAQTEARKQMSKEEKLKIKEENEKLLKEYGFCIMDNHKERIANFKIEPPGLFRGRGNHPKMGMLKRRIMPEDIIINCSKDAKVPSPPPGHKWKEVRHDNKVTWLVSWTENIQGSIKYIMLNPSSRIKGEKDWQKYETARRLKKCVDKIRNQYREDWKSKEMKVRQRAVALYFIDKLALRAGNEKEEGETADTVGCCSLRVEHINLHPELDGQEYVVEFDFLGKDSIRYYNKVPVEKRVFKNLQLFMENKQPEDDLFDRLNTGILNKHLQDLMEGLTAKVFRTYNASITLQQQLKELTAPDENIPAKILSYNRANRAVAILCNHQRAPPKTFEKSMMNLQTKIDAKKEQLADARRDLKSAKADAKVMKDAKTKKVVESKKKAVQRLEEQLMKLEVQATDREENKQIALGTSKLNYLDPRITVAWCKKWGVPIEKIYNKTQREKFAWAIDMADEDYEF
Description: (§1) • Evaluation compound: Compound No. 1 of the present invention was used, and […] thereof was dissolved in 20 μL of DMSO to prepare a 20 mM solution. • Camptothecin: (FUJIFILM Wako Pure Chemical Corporation) 100 mg was dissolved in 57.4 mL of DMSO to prepare a 5 mM solution. • Etoposide: (FUJIFILM Wako Pure Chemical Corporation) 25 mg was dissolved in 424.8 μL of DMSO to prepare a 100 mM solution. • Human topoisomerase I/DNA relaxation assay kit […] (Manufactured by ProFoldin) • Human topoisomerase II/DNA relaxation assay kit HD[…] (Manufactured by ProFoldin) Measurement was performed in accordance with an instruction manual of ProFoldin. […] After the reaction, centrifugation was performed at 1,300 rpm for 30 seconds, and the reaction liquid was poured into a spin-column. The spin-column was rotated at 1,300 rpm for 2 minutes, and the liquid that had flowed out of the column was poured into a 96-well black plate. The liquid that had flowed out was subjected to a reaction by adding a fluorescent dye solution (up to 150 μL). The intensity of fluorescence excited with light at 485 nm was measured at 535 nm.

human topoisomerase II = test: Human topoisomerase II DNA relaxation assay (ProFoldin kit); type: biochemical; conditions: 5 μL of evaluation sample solution (100 μM), fluorescence 485/535 nm, FIG. 4
Description: as §1

mouse naive CD4+ T cells = test: Th17 cell differentiation-suppressing activity (flow cytometry); type: cell-based; conditions: Compound No. 1 at 5 μM, halofuginone at 50 nM, 5 days of differentiation culture, FIG. 5
Description: Evaluation compound: Compound No. 1 of the present invention was used, and […] thereof was dissolved in 20 μL of DMSO to prepare a 20 mM solution. • Halofuginon: (Cayman Chemical Company)
5 mg was dissolved in 554.2 μL of DMSO to prepare a 20 mM solution. • Th17 cell inducer: A Th17 cell differentiation induction kit containing IL-6 and TGFβ1 as main components (CellXVivo Mouse Th17 Cell Differentiation Kit: R&D Systems) • Mouse helper T cell differentiation induction kit CDK017 (Techne Corporation)
Measurement was performed in accordance with an instruction manual of Techne Corporation. First, a cell culture plate was coated with an anti-hamster CD3 antibody. Mouse spleen cells were isolated into single cells, and mouse naive CD4^+ T cells were isolated using a mouse naive CD4^+ T cell isolation kit (MagCellect). The number of cells was counted. The isolated mouse naive CD4^+ T cells were dispersed in a mouse Th17 differentiation medium at 1×10^6 cells/mL. Compound No. 1 and halofuginone were added to the mouse Th17 differentiation medium at 5 μM and 50 nM, respectively. Next, the medium having the cells dispersed therein was added to the plate coated with the anti-hamster CD3 antibody, and humidified culture was continued for 3 days at 37° C. in the presence of 5% CO2. On the 3rd day, the medium was refreshed by adding an equal amount of the mouse Th17 differentiation medium without removing the original culture medium. Humidified culture was continued for 2 days at 37° C. in the presence of 5% CO2. After the 5 days of differentiation culture, the differentiated mouse Th17 cells were subjected to flow cytometry to analyze the expression of cytokines, and the number of cells differentiated into Th17 cells was determined.

eIF2α = eIF2α phosphorylation-promoting activity (western blotting of 293A cell lysates); type: cell-based; conditions: 293A cells, 16 hours at 37° C., Compound No. 1 at 5 μM, halofuginone at 50 nM, thapsigargin at 200 nM, FIG. 3
Description: • Host cells: 293A cells • Evaluation compound: Compound No. 1 of the present invention was used, and […] thereof was dissolved in 20 μL of DMSO to prepare a 20 mM solution. • Thapsigargin: (Cayman Chemical Company)
10 mg was dissolved in 76.8 mL of DMSO to prepare a 200 μM solution. • Halofuginon: (Cayman Chemical Company)
5 mg was dissolved in 554.2 μL of DMSO to prepare a 20 mM solution.
The above-mentioned 293A cells were seeded in a 96-well plate at 5×10^5 cells/well, and were cultured overnight in a DMEM solution of 10% fetal bovine serum (FBS). The next day, the medium was changed to a DMEM solution of 10% fetal bovine serum (FBS) containing Compound No. 1 at 5 μM, halofuginone at 50 nM, or thapsigargin at 200 nM, and the cells were cultured at 37° C. for 16 hours. After the cells had been washed with a PBS buffer, the cells were lysed with a RIPA buffer to extract proteins, and the proteins were separated according to size by an electrophoresis method of SDS-PAGE. The expression amount of an endoplasmic reticulum stress marker was measured by a western blotting method.

Row | Compound | topoisomerase-inhibiting activity, human topoisomerase I (human topoisomerase I) | topoisomerase-inhibiting activity, human topoisomerase II (human topoisomerase II) | suppression of differentiation from mouse naive CD4+ T cells into Th17 cells (mouse naive CD4+ T cells) | eIF2α phosphorylation-promoting effect (phosphorylated eIF2α expression amount) (eIF2α) | also measured
1 | 1-(2-chloro-5-methylphenyl)-4-oxo-7-(4-pyridyl)-naphthyridine [Compound No. 1] | did not show topoisomerase-inhibiting activity | did not show topoisomerase-inhibiting activity | remarkably suppressed differentiation | had an eIF2α phosphorylation-promoting effect | topoisomerase-inhibiting activity, human topoisomerase I (human topoisomerase I; listed as No. 1): free of topoisomerase-inhibiting activity; topoisomerase-inhibiting activity, human topoisomerase II (human topoisomerase II; listed as No. 1): free of topoisomerase-inhibiting activity; suppression of differentiation from mouse naive CD4+ T cells into Th17 cells (mouse naive CD4+ T cells; listed as No. 1): has Th17 cell differentiation-suppressing activity; eIF2α phosphorylation-promoting effect (phosphorylated eIF2α expression amount) (eIF2α; listed as No. 1): eIF2α phosphorylation-promoting effect
2 | CC[C@@]1(O)C(=O)OCc2c1cc1n(c2=O)Cc2cc3ccccc3nc2-1 [camptothecin, reference compound] | remarkably reduced topoisomerase I activity |  |  |  | 
3 | COc1cc([C@@H]2c3cc4c(cc3[C@@H](O[C@@H]3O[C@@H]5CO[C@@H](C)O[C@H]5[C@H](O)[C@H]3O)[C@H]3COC(=O)[C@H]23)OCO4)cc(OC)c1O [etoposide, reference compound] |  | remarkably reduced topoisomerase II activity |  |  | 
4 | O=C(CC1NCCCC1O)Cn1cnc2cc(Br)c(Cl)cc2c1=O (stereo not shown) [halofuginone, reference compound] |  |  | capable of inhibiting the induction of differentiation into Th17 cells | eIF2α phosphorylation-promoting effect | 
5 | C/C=C(/C)C(=O)O[C@H]1C(C)=C2[C@H]([C@@H]1OC(=O)CCCCCCC)[C@@](C)(OC(C)=O)C[C@H](OC(=O)CCC)[C@@]1(O)[C@H]2OC(=O)[C@@]1(C)O [thapsigargin, reference compound] |  |  |  | eIF2α phosphorylation-promoting effect | 
